We go through two compounds from patent US9918968B2, “Rapamycin analogs targeting proteasome function in the treatment of cancer” (THE BOARD OF REGENTS OF THE UNIVERSITY OF TEXAS SYSTEM, priority 2013, dated 2018).

Data set [1] deals with RPMI 8226 myeloma cells. Put plainly: Live/dead cell count, RPMI 8226 myeloma cells. The data set is classed as cell-based, human. As to conditions: 5 nM, 48 hrs. The procedure: (§1) Culture Collection; ATCC) were cultured according to ATCC specifications: HeLa.S3 cervical adenocarcinoma, MCF7 breast adenocarcinoma, MDA-MB-231 breast adenocarcinoma (representing triple negative breast cancer), and RPMI 8226 myeloma. The cells were grown in 24 or 12-well cell culture plates. When the cells reached about 60% confluency (surface-growing HeLa.S3,MCF7 and MDA-MB-231) or a density of about 7×10^5 (suspension-growing RPMI 8226), the inhibitors dissolved in DMSO or the solvent (DMSO) diluted in respective culture medium were added and the cells were further cultured for additional 48 hours. […] The final concentration of the solvent was 1% (vol/vol). The number of live and dead cells after the treatment was approximated with calcein AM and ethidium homodimer (LiveDead test, Invitrogen) according to manufacturer's protocol, or by a Trypan Blue exclusion assay. In short, the cells after the treatment were washed three times with PBS and overlaid (surface-growing) or mixed (suspension-growing) with 4 microM calcein AM and 2 microM ethidium homodimer in PBS. Fluorescence of calcein and DNA-bound ethidium homodimer was measured with Fluoroskan Ascent plate reader, at 485 nm (excitation)/538 nm (emission) and 530 nm/619 nm, respectively. The cell counts were approximated using standard curves of live and digitonin-killed cells prepared for each strain. Alternatively, after cell treatment the medium was removed, the surface growing cells were overlaid with Trypan Blue solution, and the colorless (live) and blue-colored (dead) cells were counted under the inverted microscope.

The subject of data set [2] is MDA-MB-231 (triple-negative breast cancer) cells. Put plainly: Viability/growth of MDA-MB-231 cells. The data set is classed as cell-based, human. As to conditions: Homo sapiens, MDA-MB-231; 24 hours, drug alone; read-out: EC50 (concentration required to exclude 50% of cells). The procedure: The cells were grown in 24 or 12-well cell culture plates. […] The final concentration of the solvent was 1% (vol/vol). The number of live and dead cells after the treatment was approximated with calcein AM and ethidium homodimer (LiveDead test, Invitrogen) according to manufacturer's protocol, or by a Trypan Blue exclusion assay. In short, the cells after the treatment were washed three times with PBS and overlaid (surface-growing) or mixed (suspension-growing) with 4 microM calcein AM and 2 microM ethidium homodimer in PBS. […] The cell counts were approximated using standard curves of live and digitonin-killed cells prepared for each strain. Alternatively, after cell treatment the medium was removed, the surface growing cells were overlaid with Trypan Blue solution, and the colorless (live) and blue-colored (dead) cells were counted under the inverted microscope.

The test system of data set [3] is HeLa.S3 cervical carcinoma cells. The data set can be described thus: Live/dead cell count, HeLa.S3 cells. The data set is classed as cell-based, human. As to conditions: 48 hrs. The procedure: as §1
Data set [4] relates to MCF7 breast carcinoma cells. The data set can be described thus: Live/dead cell count, MCF7 cells. Format: cell-based, human. As to conditions: 100 nM bortezomib. How it is done: as §1, with “In short, the cells after the treatment were washed three times with PBS and overlaid (surface-growing) or mixed (suspension-growing) with 4 microM calcein AM and 2 microM ethidium homodimer in PBS.” left out, “The cell counts were approximated using standard curves of live and digitonin-killed cells prepared for each strain.” left out

The test system of data set [5] is transplanted tumor. As to conditions: cited from earlier work; for proteasome inhibition in brain tissue: any time point.
The test system of data set [6] is T1, human 20S proteasome, ChT-L peptidase.
T1 construct: purchased Enzo LifeSciences
Put plainly: ChT-L peptidase activity of purified human 20S proteasome (Suc-LLVY-MCA). The data set is classed as biochemical. The procedure: Human purified proteasome complexes were purchased from Enzo LifeSciences or Boston Biochemicals (19S complex). BODIPY-casein (Invitrogen/Molecular Probes) was used as a model protein substrate, with increasing fluorescence of BODIPY labeled peptide products of degradation monitored for up to 8 hours at 37° C. The peptidase activity of the enzyme was measured as arbitrary intensity units of the released fluorescent group 7-amino-4-methylcoumarin (AMC) from peptide substrates, as described. […] Proteasome substrates, rapamycin, its derivatives, and competing peptides were stocked in DMSO and diluted 100-fold in the reaction mixtures. The Rpt5 and PA200 C-terminal peptides were synthesized in the Departmental Peptide Synthesis Core using the standard SPPS chemistry. To activate the latent 20S proteasome, 0.005% (final concentration) of sodium dodecyl sulfate (SDS) was used. […] The fluorescence of products was monitored every 2 minutes with a Fluoroskan Ascent plate reader. Reaction rates were calculated from smoothed linear segment of kinetic curves using OriginPro 8.6 (OriginLabs, Northampton, Mass.). For the determination of an inhibition type, at least six distinct substrate concentrations and two inhibitor concentrations were used. The kinetic parameters of inhibition were analyzed in terms of the Michaelis-Menten formalism using the enzyme kinetic module of SigmaPlot v.12 (Systat Software, Inc, San Jose, Calif.) to perform the respective calculations. […]
The in vitro assay for testing the ChT-L peptidase activity of the purified human 20S proteasome was performed as described above.

Data set [7] deals with H460. As to conditions: read-out: IC50, proliferation; cited from earlier work.
The subject of data set [8] is HS-Sultan anaplastic non-Hodgkin lymphoma. The conditions noted are these: read-out: IC50, proliferation; cited from earlier work.
In data set [9] the target is chymotrypsin-like proteasome activity (Homo sapiens, UniProt P28074). The conditions noted are these: read-out: IC50, chymotrypsin-like proteasome inhibition; cited from earlier work.
In data set [10] the test system is A2780 ovarian cancer cells. As to conditions: read-out: IC50, proliferation; cited from earlier work.
The subject of data set [11] is RPMI8226 multiple myeloma cancer. As to conditions: read-out: IC50, proliferation; cited from earlier work.
Data set [12] deals with MM xenograft tumors (LAGκ-1A). As to conditions: 14 d, cited from earlier work.
Data set [13] deals with PC3 prostate cancer. As to conditions: read-out: IC50, proliferation; cited from earlier work.
For data set [14], the system named is LoVo colon cancer. As to conditions: read-out: IC50, proliferation; cited from earlier work.

Each structure is given as a SMILES string. Read-outs that look alike come from different tables or passages of the source.

`CC(C)C[C@H](NC(=O)[C@H](Cc1ccccc1)NC(=O)c1cnccn1)B(O)O` [bortezomib] registered a dead cells in data set [1] of 18%. Further, in data set [1] (100% = live cells in DMSO control), the remaining live cells worked out at 10%. The EC50 in data set [2] came to 745 nM. In addition, the “dead cells, of total cell count” value in data set [3] (up to 100 nM bortezomib) is “up to 16%”. Further, the “changes in cell proliferation” value in data set [3] (up to 100 nM) is on record as “did not induce significant changes”. Further, the “live cell count, of the control” value in data set [4] was “about 53%”. For the same compound, the “proteasome inhibition in brain tissue” value in data set [5] is on record as “No proteasome inhibition is detected”. Besides, the “incidence of CR (complete tumor regression)” value in data set [5] (at MTD of 1.2 mg/kg intravenously) was 50%. In addition, the “maximally tolerated dose (MTD)” value in [5] (intravenously) is 1.2 mg/kg. Further, the “remaining ChT-L activity” value in data set [6] (5 nM BZ alone) turned out to be 83%; in data set [6] (50 nM bortezomib alone), 68%.

Take `CC(C)C[C@H](NC(=O)[C@@H](NC(=O)c1cccc(-c2ccccc2)n1)[C@@H](C)O)B(O)O` [Delanzomib]: the IC50 in data set [7] is 34.2 nM; in data set [8] it was 8.2 nM; in [9], 3.8 nM; in [10], 13.7 nM; in data set [11], 5.6 nM; in [13] it was 22.2 nM. The IC50 in data set [14] is 11.3 nM. The “proteasome inhibition in brain tissue” value in data set [5] is given as “No proteasome inhibition is detected”. Also, the “maximum apoptotic signal versus bortezomib” value in data set [5] (caspase-3 and 7 activity in tumor, equiactive doses) is 2.5 fold. In addition, the “tumors smaller than control” value in data set [12] (twice weekly 3 mg/kg i.v.) is listed as “approximately 8 times”; in data set [12] (twice weekly 10 mg/kg orally), approximately 12 times.
